In publication PMC11079024, “Identification of a family of species-selective complex I inhibitors as potential anthelmintics” (Nature Communications, 2024):
Read-outs that look alike come from different tables or passages of the source.

Legend:
[1] = tested on: ben-1 mutant (ECA882) C. elegans; test: microbe, parasite or virus in culture; settings: Caenorhabditis elegans; for viability at 1 µM / viability at 2 µM / viability at 3.9 µM / viability at 15.6 µM / viability at 31.3 µM / viability at 62.5 µM / viability at 125 µM / viability at 250 µM / viability at 500 µM / viability at 1000 µM: read-out: C. elegans ben-1(e1880) development/viability
Procedure, shortened: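 L1 larvae (~2 worms/μL in M9) in liquid NGM with 2-fold concentrated E. coli HB101, compound at 1% DMSO, 6 days at 20 °C shaking 165 rpm. Well images scored as summed worm-associated pixels, normalized to DMSO controls; relative viability averaged over at least three biological replicates.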

[2] = tested on: L1 wild-type C. elegans; test: microbe, parasite or virus in culture; settings: Caenorhabditis elegans, read-out: C. elegans KCN Survival Assay LC50, estimated from fitted dose-response curves; mean of at least two biological replicates
[3] = in vitro; settings: human; for viability at 2 days, 3.13 µM / viability at 2 days, 6.25 µM / viability at 2 days, 25 µM / viability at 2 days, 50 µM / viability at 2 days, 100 µM / viability at 2 days, 12.5 µM: HEK293 cells (Flp-In-293)
[4] = tested on: L1 wild-type C. elegans
[5] = read-out: C. elegans (ben-1) Development & Viability Assay LC50
[6] = read-out: C. elegans ben-1 log10 LC50 (converted)
[7] = HEK293 Cell Viability Assay LC50, HEK293 cells, estimated from fitted dose-response curves, mean of at least two biological replicates
[8] = 50 μM, KCN survival assay, hit = relative motility below 0.25
[9] = 50 μM, hit = relative motility below 0.25 3 hours after removal of KCN
[10] = Dose 0.2 µM, mean of at least three biological replicates
[11] = 50 μM compound, hit = relative motility below 0.25 3 hours after removal of KCN
[12] = HEK293 Cell Viability Assay LC50, HEK293 cells, estimated from fitted dose-response curves

## Brc1ccccc1OCCCCn1cnc2ccccc21 [Compound 7924576]
[1]; [5]
  LC50: 58.6 µM
[1]
  viability at 1 µM: 99.9%
  viability at 2 µM: 91.7%
  viability at 3.9 µM: 96.6%
  viability at 15.6 µM: 87.8%
  viability at 31.3 µM: 65.5%
  viability at 62.5 µM: 54%
  viability at 125 µM: 3.7%
  viability at 250 µM: 4.7%
  viability at 500 µM: 2.1%
  viability at 1000 µM: 0.7%
[1]; [6]
  LC50: 58.6 µM
[2]
  LC50: 6.73 µM
[3]; [7]
  CC50 at 2 days: 44.3 µM
[3]; HEK293 viability, Dose 3.13 µM
  viability at 2 days, 3.13 µM: 96.3%
[3]; HEK293 viability
  viability at 2 days, 6.25 µM: 98.1%
  viability at 2 days, 25 µM: 82.8%
  viability at 2 days, 50 µM: 40.2%
  viability at 2 days, 100 µM: 6.9%
[4]; [8]
  Screen "Hit": Y (hits were identified as compounds that reduced relative motility below 0.25 (75% reduction))
[4]; Dose 0.39 µM
  C. elegans KCN Survival: 0.969
[4]; Dose 1.56 µM
  C. elegans KCN Survival: 0.940
[4]; Dose 3.13 µM
  C. elegans KCN Survival: 0.862
[4]; Dose 6.25 µM
  C. elegans KCN Survival: 0.585
[4]; Dose 12.5 µM
  C. elegans KCN Survival: 0.135
[4]; Dose 25 µM
  C. elegans KCN Survival: 0.138
[4]; Dose 50 µM
  C. elegans KCN Survival: 0.159
[4]; Dose 100 µM
  C. elegans KCN Survival: 0.208

## CC(C)Oc1cccc(OCCn2cnc3ccccc32)c1 [Compound 7926496]
[1]; [5]
  LC50: 388 µM
[1]
  viability at 1 µM: 86.1%
  viability at 2 µM: 87.5%
  viability at 3.9 µM: 87.4%
  viability at 15.6 µM: 90.6%
  viability at 31.3 µM: 95.8%
  viability at 62.5 µM: 91.5%
  viability at 125 µM: 81%
  viability at 250 µM: 86.3%
  viability at 500 µM: 13.9%
  viability at 1000 µM: 3.6%
[1]; [6]
  LC50: 388 µM
[2]
  LC50: 23 µM
[3]
  CC50 at 2 days: 94.5 µM
[3]; HEK293 viability
  viability at 2 days, 6.25 µM: 97.4%
  viability at 2 days, 12.5 µM: 96.9%
  viability at 2 days, 25 µM: 97.3%
  viability at 2 days, 50 µM: 85.9%
  viability at 2 days, 100 µM: 43.4%
[3]; HEK293 viability, Dose 3.13 µM
  viability: 91.5%
[4]; [9]
  Screen "Hit": Y (hits were identified as compounds that reduced relative motility below 0.25 (75% reduction))
[4]; [10]
  C. elegans KCN Survival: 1.017
[4]; Dose 0.39 µM
  C. elegans KCN Survival: 1.017
[4]; Dose 1.56 µM
  C. elegans KCN Survival: 1.072
[4]; Dose 3.13 µM
  C. elegans KCN Survival: 1.070
[4]; Dose 6.25 µM
  C. elegans KCN Survival: 1.047
[4]; Dose 12.5 µM
  C. elegans KCN Survival: 0.937
[4]; Dose 25 µM
  C. elegans KCN Survival: 0.437
[4]; Dose 50 µM
  C. elegans KCN Survival: 0.153
[4]; Dose 100 µM
  C. elegans KCN Survival: 0.199

## C=CCn1c(C(C)c2ccc(CC(C)C)cc2)nc2ccccc21 (stereo not drawn) [STL020755]
[1]; [5]
  LC50: 285 µM
[1]; [6]
  LC50: 284 µM
[2]
  LC50: 9.97 µM
[3]; [7]
  CC50 at 2 days: 49.5 µM
[4]; [11]
  Screen "Hit": Y (hits were identified as compounds that reduced relative motility below 0.25 (75% reduction))

## Clc1ccccc1OCCCCn1cnc2ccccc21 [Compound 7925804]
[1]; [5]
  LC50: 49.2 µM
[1]
  viability at 1 µM: 91.8%
  viability at 2 µM: 87.2%
  viability at 3.9 µM: 83.7%
  viability at 15.6 µM: 79%
  viability at 31.3 µM: 79.6%
  viability at 62.5 µM: 18.3%
  viability at 125 µM: 6.8%
  viability at 250 µM: 4.1%
  viability at 500 µM: 3.2%
  viability at 1000 µM: 3.8%
[1]; [6]
  LC50: 49.2 µM
[2]
  LC50: 6.97 µM
[3]; [7]
  CC50 at 2 days: 40.2 µM
[3]; HEK293 viability, Dose 3.13 µM
  viability at 2 days, 3.13 µM: 100%
[3]; HEK293 viability
  viability at 2 days, 6.25 µM: 99.5%
  viability at 2 days, 12.5 µM: 97.9%
  viability at 2 days, 25 µM: 73.8%
  viability at 2 days, 50 µM: 40.2%
  viability at 2 days, 100 µM: 8%
[4]; [8]
  Screen "Hit": Y (hits were identified as compounds that reduced relative motility below 0.25 (75% reduction))
[4]; [10]
  C. elegans KCN Survival: 1.043
[4]; Dose 0.39 µM
  C. elegans KCN Survival: 1.064
[4]; Dose 1.56 µM
  C. elegans KCN Survival: 1.052
[4]; Dose 3.13 µM
  C. elegans KCN Survival: 1.018
[4]; Dose 6.25 µM
  C. elegans KCN Survival: 0.644
[4]; Dose 12.5 µM
  C. elegans KCN Survival: 0.155
[4]; Dose 25 µM
  C. elegans KCN Survival: 0.142
[4]; Dose 50 µM
  C. elegans KCN Survival: 0.136
[4]; Dose 100 µM
  C. elegans KCN Survival: 0.181

## Cc1ccc2nc(C(C)c3ccc(CC(C)C)cc3)[nH]c2c1 (stereo not drawn) [STL482096]
[1]; [5]
  LC50: > 1000 µM
[1]; read-out: C. elegans ben-1 LC50
  LC50: > 500 µM
[1]; [6]
  LC50: > 500 µM
[2]
  LC50: 6.76 µM
[3]
  CC50 at 2 days: < 12.5 µM
[4]; [11]
  Screen "Hit": Y (hits were identified as compounds that reduced relative motility below 0.25 (75% reduction))

## Cc1nc2ccccc2n1Cc1ccccc1Cl [Compound 6707368]
[1]; [5]
  LC50: 135 µM
[1]; [6]
  LC50: 135 µM
[2]
  LC50: 8.24 µM
[3]
  CC50 at 2 days: > 100 µM
[4]; [8]
  Screen "Hit": Y (hits were identified as compounds that reduced relative motility below 0.25 (75% reduction))

## Cc1ccc(Cn2c(C(C)C)nc3ccccc32)cc1 [Compound 6586153]
[1]; [5]
  LC50: 419 µM
[1]; [6]
  LC50: 419 µM
[2]
  LC50: 24.9 µM
[3]; [12]
  CC50 at 2 days: > 100 µM
[4]; [8]
  Screen "Hit": Y (hits were identified as compounds that reduced relative motility below 0.25 (75% reduction))

## Cc1nc2ccccc2n1Cc1ccc(Br)cc1 [Compound 5567167]
[1]; [5]
  LC50: 11.2 µM
[1]; [6]
  LC50: 11.2 µM
[2]
  LC50: 1.34 µM
[3]; [7]
  CC50 at 2 days: 89.3 µM
[4]; [8]
  Screen "Hit": Y (hits were identified as compounds that reduced relative motility below 0.25 (75% reduction))

## CCc1cc(OCCn2cnc3ccccc32)ccc1Cl [Compound 7925288]
[1]; [5]
  LC50: 55.2 µM
[1]
  viability at 1 µM: 100%
  viability at 2 µM: 96%
  viability at 3.9 µM: 96.4%
  viability at 15.6 µM: 94.7%
  viability at 31.3 µM: 88%
  viability at 62.5 µM: 39.9%
  viability at 125 µM: 3.8%
  viability at 250 µM: 3.3%
  viability at 500 µM: 2.9%
  viability at 1000 µM: 1.8%
[1]; [6]
  LC50: 55.2 µM
[2]
  LC50: 19.1 µM
[3]; [12]
  CC50 at 2 days: 34.1 µM
[3]; HEK293 viability, Dose 3.13 µM
  viability at 2 days, 3.13 µM: 91.4%
[3]; HEK293 viability
  viability at 2 days, 6.25 µM: 96.8%
  viability at 2 days, 12.5 µM: 93.6%
  viability at 2 days, 25 µM: 81.1%
  viability at 2 days, 50 µM: 8.7%
  viability at 2 days, 100 µM: 7.1%
[4]; [9]
  Screen "Hit": Y (hits were identified as compounds that reduced relative motility below 0.25 (75% reduction))
[4]; [10]
  C. elegans KCN Survival: 1.082
[4]; Dose 0.39 µM
  C. elegans KCN Survival: 1.088
[4]; Dose 1.56 µM
  C. elegans KCN Survival: 1.105
[4]; Dose 3.13 µM
  C. elegans KCN Survival: 1.186
[4]; Dose 6.25 µM
  C. elegans KCN Survival: 1.064
[4]; Dose 12.5 µM
  C. elegans KCN Survival: 0.930
[4]; Dose 25 µM
  C. elegans KCN Survival: 0.276
[4]; Dose 50 µM
  C. elegans KCN Survival: 0.146
[4]; Dose 100 µM
  C. elegans KCN Survival: 0.159

## Cc1ccc(C(C)C)c(OCC(O)Cn2cnc3ccccc32)c1 (stereo not drawn) [Compound 6093301]
[1]; [5]
  LC50: 366 µM
[1]
  viability at 1 µM: 94.1%
  viability at 2 µM: 98.7%
  viability at 3.9 µM: 95.9%
  viability at 15.6 µM: 96.4%
  viability at 31.3 µM: 97.2%
  viability at 62.5 µM: 83.6%
  viability at 125 µM: 88.1%
  viability at 250 µM: 88.4%
  viability at 500 µM: 12.5%
  viability at 1000 µM: 4.7%
[1]; [6]
  LC50: 366 µM
[2]
  LC50: 19.8 µM
[3]
  CC50 at 2 days: 21.8 µM
[3]; HEK293 viability, Dose 3.13 µM
  viability at 2 days, 3.13 µM: 90.1%
[3]; HEK293 viability
  viability at 2 days, 6.25 µM: 92.9%
  viability at 2 days, 12.5 µM: 85.6%
  viability at 2 days, 25 µM: 32.4%
  viability at 2 days, 50 µM: 7.3%
  viability at 2 days, 100 µM: 7.2%
[4]; [9]
  Screen "Hit": Y (hits were identified as compounds that reduced relative motility below 0.25 (75% reduction))
[4]; [10]
  C. elegans KCN Survival: 1.001
[4]; Dose 0.39 µM
  C. elegans KCN Survival: 1.016
[4]; Dose 1.56 µM
  C. elegans KCN Survival: 1.025
[4]; Dose 3.13 µM
  C. elegans KCN Survival: 0.981
[4]; Dose 6.25 µM
  C. elegans KCN Survival: 0.940
[4]; Dose 12.5 µM
  C. elegans KCN Survival: 0.855
[4]; Dose 25 µM
  C. elegans KCN Survival: 0.337
[4]; Dose 50 µM
  C. elegans KCN Survival: 0.161
[4]; Dose 100 µM
  C. elegans KCN Survival: 0.196
